Data on eleven compounds can be found in patent publication US20140228349A1, “5,7-SUBSTITUTED-IMIDAZO[1,2-C]PYRIMIDINES” (Array BioPharma Inc., priority 2011, published 2014).

One may read the pIC50 as the IC50 on a negative log10 scale, so that one unit is a factor of ten.

Holding throughout (type): biochemical
One assay addresses T1, Human Tyk2 kinase domain (Homo sapiens, UniProt P29597).
T1 construct: comprising amino acids 886 to 1187; His10 (10 histidine residues) (C, cleaved yes); made in house
T1 sequence (P29597 886-1187): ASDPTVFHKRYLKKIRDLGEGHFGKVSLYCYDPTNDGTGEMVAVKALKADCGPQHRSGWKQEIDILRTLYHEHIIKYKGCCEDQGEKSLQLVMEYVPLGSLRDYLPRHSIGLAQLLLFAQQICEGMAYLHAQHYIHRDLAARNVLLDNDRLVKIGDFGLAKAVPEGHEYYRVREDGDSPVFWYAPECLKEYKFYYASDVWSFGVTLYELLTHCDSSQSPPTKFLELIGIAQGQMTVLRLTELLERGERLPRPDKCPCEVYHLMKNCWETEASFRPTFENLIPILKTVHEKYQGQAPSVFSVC
Put plainly: Tyk2 Inhibition Assay (Omnia kinase fluorescence peptide substrate). The following applies: averaged IC50 ranges; 10 μM (Km app) or 1 mM ATP, 2 nM Tyk2. The source says:
(§1) The assays described in Examples A, B, C and D for the determination of Tyk2, JAK1, JAK2 and JAK3 kinase activity, respectively, utilized the Omnia® Kinase fluorescence peptide substrate-based technology (Invitrogen). The specific components of the assay mixture are described in Examples A, B, C and D. In these assays, Mg^2+ is chelated upon phosphorylation of the Omnia peptide by the kinase to form a bridge between the chelation-enhanced fluorophore Sox and the phosphate, resulting in an increase in fluorescence emission at 485 nm when excited at […]. The reactions were therefore read at excitation 360 nm and emission was measured at 485 nm every 50 seconds for 45 minutes using a PerkinElmer EnVision Multilabel Plate Reader.
(§2) The final buffer conditions for Tyk2, JAK1, JAK2, and JAK3 assays were as follows: 25 mM HEPES, pH 7.4, 10 mM MgCl2, 0.01% Triton X-100 and 1 mM DTT.
(§3) Compounds were prepared at 50× the final concentration in DMSO by conducting 3-fold serial dilutions from a 500-μM intermediate dilution to give a 10-point dosing curve having a high dose of 10 μM. Two-μL aliquots of these were transferred to a fresh plate for a ten-fold intermediate dilution with assay buffer. Five-μL aliquots of the diluted compounds were then transferred to 20-μL of assay mixtures described in Examples A, B, C and D for a final concentration of DMSO of 2%. A standard or reference compound was typically included on each assay plate to validate that plate. For each plate, percent of control (POC) values were calculated for each well according to the following equation: […]
(§4) IC50's were estimated from the POC's using a standard 4-parameter logistic model:
(§5) The IC50 is defined as the concentration of inhibitor at which the POC equals 50 for the fitted curve.
Compounds of Formula I were screened for their ability to inhibit Tyk2 using the general enzyme inhibition assay method, in which the assay mixture contained 10 μM (Km app) or 1 mM ATP, 8 μM Omnia® Y12 peptide (Catalog #IVGN KPZ3121C; Invitrogen Corporation, Carlsbad, Calif.) and 2 nM Tyk2 in a total volume of 20 μL. Human Tyk2 kinase domain, comprising amino acids 886 to 1187 with 10 additional histidine residues (histidine tag) on the carboxy terminus, was expressed and purified from bacculovirus in-house at Array BioPharma Inc. (Boulder, Colo.). The histidine tag was cleaved after purification using standard conditions.

The next assay has as its target T2, JAK3 (Homo sapiens, UniProt P52333).
T2 construct: purchased Invitrogen Corporation, Carlsbad, Calif; IVGN PV4080
T2 sequence (P52333 1-1124): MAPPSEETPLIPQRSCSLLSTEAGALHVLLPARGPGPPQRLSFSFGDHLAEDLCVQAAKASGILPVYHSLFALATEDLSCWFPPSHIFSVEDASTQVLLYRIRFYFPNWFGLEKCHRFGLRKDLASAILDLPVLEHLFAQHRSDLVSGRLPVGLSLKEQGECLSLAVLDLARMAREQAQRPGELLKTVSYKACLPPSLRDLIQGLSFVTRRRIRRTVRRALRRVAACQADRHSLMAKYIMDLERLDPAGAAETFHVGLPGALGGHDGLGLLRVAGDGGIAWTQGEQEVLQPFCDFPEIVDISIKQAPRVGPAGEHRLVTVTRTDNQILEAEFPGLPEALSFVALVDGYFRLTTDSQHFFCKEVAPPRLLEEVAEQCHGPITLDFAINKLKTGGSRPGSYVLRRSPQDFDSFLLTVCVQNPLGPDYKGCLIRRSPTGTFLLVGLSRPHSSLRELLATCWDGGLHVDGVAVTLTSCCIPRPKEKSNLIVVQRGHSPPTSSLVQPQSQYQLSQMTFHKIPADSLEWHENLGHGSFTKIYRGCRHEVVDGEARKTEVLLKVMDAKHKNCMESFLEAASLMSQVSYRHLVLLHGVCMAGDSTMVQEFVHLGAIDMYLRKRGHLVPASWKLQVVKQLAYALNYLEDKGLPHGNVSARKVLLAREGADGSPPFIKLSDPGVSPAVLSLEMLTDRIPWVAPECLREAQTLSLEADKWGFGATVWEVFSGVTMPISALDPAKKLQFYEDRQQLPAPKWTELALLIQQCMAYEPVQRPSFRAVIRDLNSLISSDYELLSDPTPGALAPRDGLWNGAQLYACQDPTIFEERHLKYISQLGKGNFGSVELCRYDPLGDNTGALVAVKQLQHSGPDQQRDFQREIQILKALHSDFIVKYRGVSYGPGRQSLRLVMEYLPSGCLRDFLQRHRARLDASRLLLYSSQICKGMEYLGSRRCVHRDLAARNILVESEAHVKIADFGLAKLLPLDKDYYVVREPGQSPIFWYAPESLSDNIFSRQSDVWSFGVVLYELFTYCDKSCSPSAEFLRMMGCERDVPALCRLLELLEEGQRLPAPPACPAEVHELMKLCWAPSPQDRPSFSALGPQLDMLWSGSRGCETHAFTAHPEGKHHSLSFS
Put plainly: JAK3 Inhibition Assay (Omnia kinase fluorescence peptide substrate). The following applies: averaged IC50 ranges; 10 μM (Km app) or 1 mM ATP, 2.5 nM JAK3.
Description: as §1, §2, §3, §4, §5
Compounds of Formula I were screened for their ability to inhibit JAK3 using the general enzyme inhibition assay method, in which the assay mixture contained 10 μM (Km app) or 1 mM ATP, 10 μM Omnia® Y7 peptide (Catalog #IVGN KNZ3071C, Invitrogen Corporation, Carlsbad, Calif.) and 2.5 nM JAK3 in a total volume of 20 μL. JAK3 was purchased from Invitrogen Corporation, Carlsbad, Calif. (catalog #IVGN PV4080).

Another assay concerns the target T3, JAK1 (Homo sapiens, UniProt P23458).
T3 construct: purchased Invitrogen Corporation, Carlsbad, Calif; IVGN PV4775
In words: JAK1 Inhibition Assay (Omnia kinase fluorescence peptide substrate). The note with it: averaged IC50 ranges; 40 μM (Km app) or 1 mM ATP, 15 nM JAK1.
Description: as §1, §2, §3, §4, §5
Compounds of Formula I were screened for their ability to inhibit JAK1 using the general enzyme inhibition assay method, in which the assay mixture contained 40 μM (Km app) or 1 mM ATP, 8 μM Omnia® Y12 peptide (Catalog #IVGN KPZ3121C; Invitrogen Corporation, Carlsbad, Calif.) and 15 nM JAK1 in a total volume of 20 μL. JAK1 was purchased from Invitrogen Corporation, Carlsbad, Calif. (catalog #IVGN PV4775).

In the next assay the target is T4, JAK2 (Homo sapiens, UniProt O60674).
T4 construct: purchased Invitrogen Corporation, Carlsbad, Calif; IVGN PV4288
T4 sequence (O60674 whole entry): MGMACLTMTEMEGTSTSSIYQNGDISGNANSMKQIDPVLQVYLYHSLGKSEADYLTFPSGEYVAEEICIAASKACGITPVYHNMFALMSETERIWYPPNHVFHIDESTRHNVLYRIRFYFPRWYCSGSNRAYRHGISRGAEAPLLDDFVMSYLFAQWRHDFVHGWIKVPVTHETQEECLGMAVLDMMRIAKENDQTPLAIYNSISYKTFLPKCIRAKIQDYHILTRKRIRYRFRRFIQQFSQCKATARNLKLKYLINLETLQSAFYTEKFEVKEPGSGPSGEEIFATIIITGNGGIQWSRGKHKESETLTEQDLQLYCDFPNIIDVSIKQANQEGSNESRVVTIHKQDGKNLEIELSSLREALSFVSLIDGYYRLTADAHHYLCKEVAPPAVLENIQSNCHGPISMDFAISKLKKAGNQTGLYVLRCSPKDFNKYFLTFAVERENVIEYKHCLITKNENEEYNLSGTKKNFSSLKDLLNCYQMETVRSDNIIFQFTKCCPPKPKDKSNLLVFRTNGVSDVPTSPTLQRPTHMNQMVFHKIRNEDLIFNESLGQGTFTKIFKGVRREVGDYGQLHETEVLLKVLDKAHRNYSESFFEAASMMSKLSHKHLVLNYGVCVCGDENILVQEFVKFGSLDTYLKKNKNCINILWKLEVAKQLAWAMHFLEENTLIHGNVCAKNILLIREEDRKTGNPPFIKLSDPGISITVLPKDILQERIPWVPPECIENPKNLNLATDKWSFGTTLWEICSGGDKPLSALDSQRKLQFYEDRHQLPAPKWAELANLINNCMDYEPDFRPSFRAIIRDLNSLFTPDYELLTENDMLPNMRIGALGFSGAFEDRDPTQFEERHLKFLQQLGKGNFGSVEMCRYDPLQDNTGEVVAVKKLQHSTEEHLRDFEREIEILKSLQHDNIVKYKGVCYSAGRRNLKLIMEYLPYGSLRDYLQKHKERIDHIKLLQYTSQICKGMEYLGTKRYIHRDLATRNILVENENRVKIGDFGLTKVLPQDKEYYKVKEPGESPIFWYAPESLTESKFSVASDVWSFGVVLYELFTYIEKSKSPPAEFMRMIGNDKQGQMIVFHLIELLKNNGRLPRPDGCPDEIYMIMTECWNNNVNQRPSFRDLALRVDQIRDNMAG
Put plainly: JAK2 Inhibition Assay (Omnia kinase fluorescence peptide substrate). The following applies: averaged IC50 ranges; 25 μM (Km app) or 1 mM ATP, 5 nM JAK2.
Description: as §1, §2, §3, §4, §5
Compounds of Formula I were screened for their ability to inhibit JAK2 using the general enzyme inhibition assay method, in which the assay mixture contained 25 μM (Km app) or 1 mM ATP, 10 μM Omnia® Y7 peptide (Catalog #IVGN KNZ3071C, Invitrogen Corporation, Carlsbad, Calif.) and 5 nM JAK2 in a total volume of 20 μL. JAK2 was purchased from Invitrogen Corporation, Carlsbad, Calif. (catalog #IVGN PV4288).

pIC50: −log10 of the molar value.

T3 sequence (P23458 whole entry): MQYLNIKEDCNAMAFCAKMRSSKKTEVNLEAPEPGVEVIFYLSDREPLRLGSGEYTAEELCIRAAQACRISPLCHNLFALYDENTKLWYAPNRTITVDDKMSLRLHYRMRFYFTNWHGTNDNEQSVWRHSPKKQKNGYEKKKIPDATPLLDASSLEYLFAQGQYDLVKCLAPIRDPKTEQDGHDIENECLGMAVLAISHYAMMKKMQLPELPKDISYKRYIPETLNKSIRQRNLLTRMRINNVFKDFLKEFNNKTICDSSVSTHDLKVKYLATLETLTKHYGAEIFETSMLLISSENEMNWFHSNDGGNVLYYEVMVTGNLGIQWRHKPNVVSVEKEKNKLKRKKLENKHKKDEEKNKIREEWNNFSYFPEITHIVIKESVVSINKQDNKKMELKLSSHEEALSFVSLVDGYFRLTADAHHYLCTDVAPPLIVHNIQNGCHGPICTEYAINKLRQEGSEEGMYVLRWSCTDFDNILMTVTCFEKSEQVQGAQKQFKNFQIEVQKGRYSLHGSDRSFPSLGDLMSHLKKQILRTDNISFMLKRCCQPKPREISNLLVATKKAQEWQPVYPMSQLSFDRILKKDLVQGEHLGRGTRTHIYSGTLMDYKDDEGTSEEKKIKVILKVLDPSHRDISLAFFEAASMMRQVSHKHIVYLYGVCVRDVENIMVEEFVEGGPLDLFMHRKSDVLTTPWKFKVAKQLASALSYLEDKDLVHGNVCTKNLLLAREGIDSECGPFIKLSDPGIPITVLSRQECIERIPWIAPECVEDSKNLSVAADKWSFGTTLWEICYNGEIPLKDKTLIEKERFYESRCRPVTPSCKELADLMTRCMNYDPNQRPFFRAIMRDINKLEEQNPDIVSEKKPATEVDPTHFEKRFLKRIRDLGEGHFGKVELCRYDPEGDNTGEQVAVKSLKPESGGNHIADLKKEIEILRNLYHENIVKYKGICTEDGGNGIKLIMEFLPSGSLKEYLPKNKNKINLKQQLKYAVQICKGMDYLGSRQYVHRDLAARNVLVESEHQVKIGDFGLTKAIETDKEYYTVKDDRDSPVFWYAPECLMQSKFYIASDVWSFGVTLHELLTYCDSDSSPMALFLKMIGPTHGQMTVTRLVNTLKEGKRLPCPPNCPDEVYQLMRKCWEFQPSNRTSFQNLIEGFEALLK

Turning to `CCOC(=O)CC1(n2cc(-c3nc(-c4cnn(C)c4)cc4nccn34)cn2)CN(S(=O)(=O)C(F)(F)F)C1` [Example 1, ethyl 2-(3-(4-(7-(1-methyl-1H-pyrazol-4-yl)imidazo[1,2-c]pyrimidin-5-yl)-1H-pyrazol-1-yl)-1-(trifluoromethylsulfonyl)azetidin-3-yl)acetate], the pIC50 was 6.00 to 7.00 against Human Tyk2 kinase domain, under 6.00 at JAK3, under 6.00 against JAK1 and under 6.00 against JAK2.

For `Cn1cc(-c2cc3nccn3c(-c3cnn(C4(CC(=O)O)CN(S(=O)(=O)C(F)(F)F)C4)c3)n2)cn1` [Example 2, 2-(3-(4-(7-(1-methyl-1H-pyrazol-4-yl)imidazo[1,2-c]pyrimidin-5-yl)-1H-pyrazol-1-yl)-1-((trifluoromethyl)sulfonyl)azetidin-3-yl)acetic acid], the pIC50 on Human Tyk2 kinase domain was 6.00 to 7.00; at JAK3, under 6.00; at JAK1, under 6.00; against JAK2, under 6.00.

Take `Cn1cc(-c2cc3nccn3c(-c3cnn(C4(CCO)CN(S(=O)(=O)C(F)(F)F)C4)c3)n2)cn1` [Example 3, 2-(3-(4-(7-(1-methyl-1H-pyrazol-4-yl)imidazo[1,2-c]pyrimidin-5-yl)-1H-pyrazol-1-yl)-1-((trifluoromethyl)sulfonyl)azetidin-3-yl)ethanol]: the pIC50 at Human Tyk2 kinase domain is 7.00 to 8.00; on JAK3, 6.00 to 7.00; at JAK1 it was 6.00 to 7.00; at JAK2, 6.00 to 7.00.

For the compound `COCCC1(n2cc(-c3nc(-c4cnn(C)c4)cc4nccn34)cn2)CN(S(=O)(=O)C(F)(F)F)C1` [Example 4, 5-(1-(3-(2-methoxyethyl)-1-((trifluoromethyl)sulfonyl)azetidin-3-yl)-1H-pyrazol-4-yl)-7-(1-methyl-1H-pyrazol-4-yl)imidazo[1,2-c]pyrimidine], the pIC50 was 6.00 to 7.00 at Human Tyk2 kinase domain, under 6.00 at JAK3, under 6.00 against JAK1 and under 6.00 on JAK2.

Regarding `CCn1cc(-c2nc(-c3cnn(C)c3)cc3nccn23)cn1` [Example 5, 5-(1-ethyl-1H-pyrazol-4-yl)-7-(1-methyl-1H-pyrazol-4-yl)imidazo[1,2-c]pyrimidine], the pIC50 against Human Tyk2 kinase domain is 6.00 to 7.00; at JAK3 it was under 6.00; against JAK1, under 6.00; on JAK2, 6.00 to 7.00.

For `Cn1cc(-c2cc3nccn3c(-c3cnn(C(CO)C4CC4)c3)n2)cn1` (stereo not drawn) [Example 6, 2-cyclopropyl-2-(4-(7-(1-methyl-1H-pyrazol-4-yl)imidazo[1,2-c]pyrimidin-5-yl)-1H-pyrazol-1-yl)ethanol], the pIC50 against Human Tyk2 kinase domain was 6.00 to 7.00; against JAK3, under 6.00; on JAK1, under 6.00; at JAK2, under 6.00.

Turning to `CC#CCCn1cc(-c2nc(-c3cnn(C)c3)cc3nccn23)cn1` [Example 7, 7-(1-Methyl-1H-pyrazol-4-yl)-5-(1-(pent-3-yn-1-yl)-1H-pyrazol-4-yl)imidazo[1,2-c]pyrimidine], the pIC50 is 6.00 to 7.00 against Human Tyk2 kinase domain, under 6.00 at JAK3, under 6.00 against JAK1 and under 6.00 against JAK2.

On to `C#CCCn1cc(-c2nc(-c3cnn(C)c3)cc3nccn23)cn1` [Example 8, 5-(1-(But-3-yn-1-yl)-1H-pyrazol-4-yl)-7-(1-methyl-1H-pyrazol-4-yl)imidazo[1,2-c]pyrimidine], for which the pIC50 at Human Tyk2 kinase domain is 7.00 to 8.00; against JAK3, 6.00 to 7.00; against JAK1 it was 6.00 to 7.00; against JAK2, 7.00 to 8.00.

As to `Cn1cc(-c2cc3nccn3c(-c3cnn(C(C4CC4)C4CC4)c3)n2)cn1` [Example 9, 5-(1-(Dicyclopropylmethyl)-1H-pyrazol-4-yl)-7-(1-methyl-1H-pyrazol-4-yl)imidazo[1,2-c]pyrimidine], the pIC50 against Human Tyk2 kinase domain is 7.00 to 8.00; at JAK3, 6.00 to 7.00; against JAK1, under 6.00; against JAK2 it was 6.00 to 7.00.

Consider `C=CCC(CC1CC1)n1cc(-c2nc(-c3cnn(C)c3)cc3nccn23)cn1` (stereo not drawn) [Example 10, 5-(1-(1-Cyclopropylpent-4-en-2-yl)-1H-pyrazol-4-yl)-7-(1-methyl-1H-pyrazol-4-yl)imidazo[1,2-c]pyrimidine], for which the pIC50 is over 8.00 against Human Tyk2 kinase domain, 6.00 to 7.00 at JAK3, 6.00 to 7.00 against JAK1 and 7.00 to 8.00 against JAK2.

`Cn1cc(-c2cc3nccn3c(-c3ccn([C@H](CCF)[C@H]4CC4(F)F)c3)n2)cn1` [Example 29, 5-(1-((R)-1-((R)-2,2-difluorocyclopropyl)-3-fluoropropyl)-1H-pyrrol-3-yl)-7-(1-methyl-1H-pyrazol-4-yl)imidazo[1,2-c]pyrimidine]: the negative-log IC50 (pIC50) against Human Tyk2 kinase domain is over 8.00; at JAK2 it was 7.00 to 8.00.
